Structures can show the parent of a compound that is named as a salt. Some results are limits rather than exact numbers.

As usually defined, the IC50 is the midpoint of a concentration-inhibition curve.

This test relates to PMS1. As to the kind of experiment: Mini-gene reporter assay-PMS1. The class given is cell-based. The following applies: Homo sapiens, HEK293, PMS1 mini-gene firefly luciferase reporter transiently transfected into HEK293 cells; read-out: PMS1 IC50. A digest of the protocol:
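Compound dilution series in duplicate added to transiently transfected HEK293 reporter cells, then incubated; EC50 from Levenberg-Marquardt fit of luminescence. The reporter joins the alternatively skipped exon, its neighbouring introns and exons to firefly luciferase, so induced inclusion gives more signal.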
For orientation: In a reporter assay the amount or activity of a reporter protein is the signal.
`CCOc1nc(N2CCCC(N3CCNCC3)C2)ncc1C(=O)Nc1cc(F)c2nc(C)cn2c1` (stereo not drawn) [Compound 194]: the IC50 was in the range of 500 to 1000 nM.

In the case of `CCOc1nc(N(C)C2CCNC2)ncc1C(=O)Nc1cc(F)c2nc(C)cn2c1` (stereo not drawn) [Compound 238], the IC50 is under 500 nM. The result for `CCOc1nc(N2CC(C3CCNCC3)C2)ncc1C(=O)Nc1cc(F)c2nc(C)cn2c1` [Compound 141] reads 500 to 1000 nM; that for `CCOc1nc(N2CCCC(C3CCCCN3)C2)ncc1C(=O)Nc1cn2cc(C)nc2c(C)n1` (stereo not drawn) [Compound 34], over 3000 nM. The result for `CCOc1nc(N2CCC(NC)C2)ncc1C(=O)Nc1cc(F)c2nn(C)cc2c1` (stereo not drawn) [Compound 263, 4-ethoxy-N-(7-fluoro-2-methyl-2H-indazol-5-yl)-2-(3-(methylamino)pyrrolidin-1-yl)pyrimidine-5-carboxamide formate] reads under 500 nM; that for `CCOc1nc(N2CCCNCC2)ncc1C(=O)Nc1cn2cc(C)nc2c(C)n1` [Compound 103], 1000 to 3000 nM. The result for `CCOc1nc(N2CCO[C@H]3CNC[C@H]32)ncc1C(=O)Nc1cc(F)c2nc(C)cn2c1` (racemic) [Compound 177] reads 1000 to 3000 nM; that for `CCOc1nc(N2CC3CNC(C3)C2)ncc1C(=O)Nc1cc(F)c2nc(C)cn2c1` (stereo not drawn) [Compound 134], 1000 to 3000 nM; that for `CCOc1nc(N(CC)C2CCCNCC2)ncc1C(=O)Nc1cn2cc(C)nc2c(C)n1` (stereo not drawn) [Compound 249], over 3000 nM. Consider `CCOc1nc(N2CC[C@H](NC)C2)ncc1C(=O)Nc1ccc2nc(C)cn2c1` [Compound 293, (S)-4-ethoxy-2-(3-(methylamino)pyrrolidin-1-yl)-N-(2-methylimidazo[1,2-a]pyridin-6-yl)pyrimidine-5-carboxamide formate], for which the IC50 is over 3000 nM. With `CCOc1nc(N2CCNC(CC)C2)ncc1C(=O)Nc1cc(F)c2nc(C)cn2c1` (stereo not drawn) [Compound 11, 4-ethoxy-2-(3-ethylpiperazin-1-yl)-N-{8-fluoro-2-methylimidazo[1,2-a]pyridin-6-yl}pyrimidine-5-carboxamide], the IC50 is under 500 nM. Regarding `CCOc1nc(N2CCNC(C)C2C)ncc1C(=O)Nc1cn2cc(C)nc2c(C)n1` (stereo not drawn) [Compound 35], the IC50 is over 3000 nM. Take `CCOc1nc(N2CCC[C@H]3NCC[C@H]32)ncc1C(=O)Nc1cc(F)c2nc(C)cn2c1` (racemic) [Compound 178]: the IC50 is under 500 nM. The result for `CCOc1nc(N2C[C@@H](C)N[C@@H](C)C2)ncc1C(=O)Nc1cn2cc(C)nc2c(C)n1` [Compound 67] reads 500 to 1000 nM; that for `CCOc1nc(N2CC[C@H](N(C)C)C2)ncc1C(=O)Nc1cc(F)c2nn(C)cc2c1` [Compound 291, (S)-2-(3-(dimethylamino)pyrrolidin-1-yl)-4-ethoxy-N-(7-fluoro-2-methyl-2H-indazol-5-yl)pyrimidine-5-carboxamide formate], over 3000 nM; that for `COc1nc(N(C)C2CCNCC2)ncc1C(=O)Nc1cn2cc(C)nc2c(C)n1` [Compound 253, N-(2,8-dimethylimidazo[1,2-a]pyrazin-6-yl)-4-methoxy-2-(methyl(piperidin-4-yl)amino) pyrimidine-5-carboxamide formate], under 500 nM.

Take `CCOc1nc(N2CCN[C@@H](C)C2)ncc1C(=O)Nc1cc(F)c2nn(C)cc2c1` [Compound 279, (S)-4-ethoxy-N-(7-fluoro-2-methyl-2H-indazol-5-yl)-2-(3-methylpiperazin-1-yl)pyrimidine-5-carboxamide formate]: the 50% inhibitory concentration (IC50) was under 500 nM. The value for `CCOc1nc(N2CC3(CNC3)C2)ncc1C(=O)Nc1cc(F)c2nc(C)cn2c1` [Compound 206] was under 500 nM.

For the origin of these results see patent publication US20250122192A1, “5-PYRIMIDINECARBOXAMIDE DERIVATIVES AND METHODS OF USING THE SAME” (Rgenta Therapeutics, Inc., priority 2021, published 2025).
